Experimental findings from ChEMBL document CHEMBL3832761, “MMV Pathogen Box Bioactivity Data” (2017) are described below.

Values after ≈ are worked out from the molar mass of the structure shown.

For assay [1], the system named is Plasmodium falciparum. Nature of the assay: Antimalarial activity: Asexual Blood Stage Plasmodium falciparum 3D7 IC50 (uM). The class given is functional, organism-based.
Assay [2] deals with Plasmodium falciparum. Nature of the assay: Antimalarial activity: Asexual Blood Stage Plasmodium falciparum Dd2 IC50 (uM). In kind it is functional, organism-based.
Assay [3] has as its system HepG2. As to the kind of experiment: HepG2 inhibition at 10 uM (%) Cytotoxicity. The class given is functional. The conditions noted are these: Homo sapiens.
For assay [4], the system named is Plasmodium falciparum. As to the kind of experiment: Antimalarial activity: Gametocytes Plasmodium falciparum NF54 Gametocytes Stage V IC50 (uM). The class given is functional, organism-based.
The subject of assay [5] is Plasmodium falciparum. As to the kind of experiment: Antimalarial activity: Gametocytes Plasmodium falciparum NF54 Gametocytes Stage V: inhibition at 10 uM (%). The class given is functional.
The next assay concerns Plasmodium berghei. Nature of the assay: Antimalarial activity: Liver Stage Plasmodium berghei sporozoite Luciferase assay: inhibition at 10 uM (%). The class given is functional.
The subject of assay [6] is HepG2. Nature of the assay: Cytotoxicity data HepG2 CC20 (uM). In kind it is functional.
Assay [7] concerns Plasmodium falciparum. Nature of the assay: Antimalarial activity: Asexual Blood Stage Plasmodium falciparum W2 IC50 (uM). The class given is functional, organism-based.
Assay [8] has as its system Mycobacterium tuberculosis. Nature of the assay: AntiMycobacterium tuberculosis activity 2-week Alamar Blue 7H9/ADC/Tw MIC (uM). The class given is functional. The conditions noted are these: 336 h.
Assay [9] has as its system Mycobacterium tuberculosis. Nature of the assay: (§1) AntiMycobacterium tuberculosis activity day 10 in 7H9/2.5mM butyrate/pH6/0.1mM nitrite MIC90 (uM). In kind it is functional. The conditions noted are these: 240 h.
The subject of assay [10] is Mycobacterium tuberculosis. Nature of the assay: AntiMycobacterium tuberculosis activity 1-week 7H9/glucose/BSA/Tx MIC (uM). The class given is functional. The conditions noted are these: 168 h.
In assay [11] the test system is Mycobacterium tuberculosis. Nature of the assay: AntiMycobacterium tuberculosis activity day 21 in 7H9/2.5mM butyrate/pH6/0.1mM nitrite MIC90 (uM). In kind it is functional. The conditions noted are these: 504 h.
In assay [12] the test system is Mycobacterium tuberculosis. Nature of the assay: AntiMycobacterium tuberculosis activity 2-week 7H9/glucose/BSA/Tx MIC (uM). In kind it is functional. The conditions noted are these: 336 h.
The test system of assay [13] is Mycobacterium tuberculosis. The description is as §1. The conditions noted are these: 240 h. The class given is functional. This is another data set of the same source.
For assay [14], the system named is HepG2. Nature of the assay: HepG2 glucose CC50 (uM) Cytotoxicity. In kind it is functional.
Assay [15] concerns Mycobacterium tuberculosis. Nature of the assay: AntiMycobacterium tuberculosis activity 2-week 7H9/ADC/Tw MIC (uM). In kind it is functional. The conditions noted are these: 336 h.
Assay [16] has as its system Mycobacterium tuberculosis. As to the kind of experiment: AntiMycobacterium tuberculosis activity 1-week 7H9/cholesterol/BSA/Tx MIC (uM). The class given is functional. The conditions noted are these: 168 h.
Assay [17] concerns Mycobacterium tuberculosis. Nature of the assay: AntiMycobacterium tuberculosis activity 2-week Alamar Blue 7H9/cholesterol/BSA/Tx MIC (uM). The conditions noted are these: 336 h. The class given is functional. On the technique in general: The colour change of resazurin is a common sign of viable cells or microbes.
The subject of assay [18] is Mycobacterium tuberculosis. Nature of the assay: AntiMycobacterium tuberculosis activity 2-week 7H9/DPPC/cholesterol/BSA/Tx MIC (uM). The class given is functional. The conditions noted are these: 336 h.
For assay [19], the system named is Mycobacterium tuberculosis. Nature of the assay: AntiMycobacterium tuberculosis activity 1-week GAST/Fe MIC (uM). In kind it is functional. The conditions noted are these: 168 h.
Assay [20] has as its system Mycobacterium tuberculosis. As to the kind of experiment: AntiMycobacterium tuberculosis activity 1-week 7H9/DPPC/cholesterol/BSA/Tx MIC (uM). In kind it is functional. The conditions noted are these: 168 h.
For assay [21], the system named is Mycobacterium tuberculosis. As to the kind of experiment: AntiMycobacterium tuberculosis activity 1-week 7H9/ADC/Tw MIC (uM). The class given is functional. The conditions noted are these: 168 h.
Assay [22] has as its system Mycobacterium tuberculosis. As to the kind of experiment: AntiMycobacterium tuberculosis activity day 21 MIC99 in 7H9/2.5mM butyrate/pH6/0.1mM nitrite MIC99 (uM). In kind it is functional. The conditions noted are these: 504 h.
The test system of assay [23] is Mycobacterium tuberculosis. Nature of the assay: AntiMycobacterium tuberculosis activity 2-week GAST/Fe MIC (uM). The class given is functional. The conditions noted are these: 336 h.
Assay [24] concerns HepG2. As to the kind of experiment: HepG2 galactose CC50 (uM) Cytotoxicity. In kind it is functional.

The IC50 is the midpoint of a concentration-inhibition curve. The low end stands for inhibition by little substance, the high end for a need for much substance. The inhibition is the drop in the measured response relative to a control, in per cent. Usually Inhibition stands for the relative decrease from the control value, in per cent. What is called MIC is the lowest concentration that inhibits growth of the organism. A lower MIC goes with greater potency. By MIC90 is commonly meant the lowest concentration that inhibits either 90% of growth or 90% of the strains tested, depending on the study. Usually CC50 stands for the concentration at which the toxic effect on the cells reaches its halfway point. Read a high CC50 as lower toxicity to the cells.

Turning to `CCNC(=O)C(C)Nc1nc(-c2cccnc2)nc2sc(C)c(C)c12` (configuration not stated), the IC50 is > 2 µM in the assay on Plasmodium falciparum [1], > 2 µM in the assay on Plasmodium falciparum [2] and 0.61 µM in the assay with Plasmodium falciparum [4]. Further, the inhibition at 10 µM in the assay with HepG2 [3] was 0%.

On to `COc1cccc(CC(=O)N2CCC(n3c(C)nc4ccc(F)cc43)CC2)c1`, for which the values for the Inhibition in the assay on Plasmodium falciparum [5] and with Plasmodium berghei were 72% and 38%, respectively. Also, the IC50 came to 0.24 µM in the assay with Plasmodium falciparum [1], 0.23 µM with Plasmodium falciparum [2], 0.31 µM with Plasmodium falciparum [4] and 0.25 µM in the assay with Plasmodium falciparum [7]. For the same compound, the inhibition at 10 µM with HepG2 [3] was found to be 0%. Further, the CC20 in the assay with HepG2 [6] was >80 µM.

Consider `CCc1ccc(C(NCc2nc(N)nc(N(C)C)n2)C(C)C)cc1` (configuration not stated), for which the IC50 in the assay on Plasmodium falciparum [1] was > 2 µM; in the assay with Plasmodium falciparum [2] it was > 2 µM; with Plasmodium falciparum [4] it was 0.08 µM.

As to `CC(=O)N1CCc2cc3nc(C)cc(C)c3cc21`, the MIC in [8] is 4.7 µM (≈ 1.13 µg/mL); in assay [10], > 50 µM; in [12] it was > 50 µM; in assay [15], > 50 µM; in [16], 3.13 µM (≈ 0.752 µg/mL); in [17], 2.3 µM (≈ 0.553 µg/mL). Besides, the MIC in assay [18] was 25 µM (≈ 6.01 µg/mL); in [19], 0.15 µM (≈ 0.036 µg/mL); in assay [20] it was 2.3 µM (≈ 0.553 µg/mL); in assay [21], > 50 µM; in assay [22], > 50 µM; in [23] it was 0.39 µM (≈ 0.0937 µg/mL). Also, the values for the MIC90 in assay [9], in assay [11] and in assay [13] were 6.25 µM (≈ 1.5 µg/mL), 12.5 µM (≈ 3 µg/mL) and > 50 µM, respectively. In addition, the CC50 in the assay with HepG2 [14] (Homo sapiens, HepG2) is > 50 µM; with HepG2 [24] (Homo sapiens, HepG2), > 50 µM.

`O=C(Nc1nc(-c2ccccn2)cs1)C1CC1c1ccccc1F` (configuration not stated): the IC50 in the assay on Plasmodium falciparum [1] was > 2 µM; with Plasmodium falciparum [2], > 2 µM; in the assay with Plasmodium falciparum [4], 0.52 µM. Also, 10 µM produced 25% inhibition with HepG2 [3].

Turning to `CS(=O)(=O)Cc1nc2ccccc2oc1=O`, the MIC in [8] was determined as 6.25 µM (≈ 1.5 µg/mL); in assay [10] it was 9.4 µM (≈ 2.25 µg/mL); in [12], 9.4 µM (≈ 2.25 µg/mL); in [15], 9.4 µM (≈ 2.25 µg/mL); in assay [16], 6.25 µM (≈ 1.5 µg/mL); in assay [17], 6.25 µM (≈ 1.5 µg/mL). Besides, the MIC turned out to be 6.25 µM (≈ 1.5 µg/mL) in assay [18]; 0.78 µM (≈ 0.187 µg/mL) in [19]; 6.25 µM (≈ 1.5 µg/mL) in [20]; 19 µM (≈ 4.55 µg/mL) in assay [21]; 12.5 µM (≈ 2.99 µg/mL) in assay [22]; 1.56 µM (≈ 0.373 µg/mL) in assay [23]. The MIC90 in assay [9] amounted to 3.12 µM (≈ 0.746 µg/mL); in assay [11], 3.12 µM (≈ 0.746 µg/mL); in assay [13], 12.5 µM (≈ 2.99 µg/mL). The CC50 in the assay with HepG2 [14] (Homo sapiens, HepG2) was > 50 µM; in the assay on HepG2 [24] (Homo sapiens, HepG2), > 50 µM.

In the case of `CCOc1ccc(-c2nc(CNCCc3ccc(F)cc3)cs2)cc1`, the MIC in assay [8] was determined as 25 µM (≈ 8.91 µg/mL); in assay [10], 19 µM (≈ 6.77 µg/mL); in assay [12], 19 µM (≈ 6.77 µg/mL); in assay [15], 25 µM (≈ 8.91 µg/mL); in [16], 9.4 µM (≈ 3.35 µg/mL); in assay [17] it was 12.5 µM (≈ 4.46 µg/mL). Moreover, the MIC in assay [18] was found to be 12.5 µM (≈ 4.46 µg/mL); in assay [19], 19 µM (≈ 6.77 µg/mL); in assay [20] it was 12.5 µM (≈ 4.46 µg/mL); in assay [21], 25 µM (≈ 8.91 µg/mL); in [22], 50 µM (≈ 17.8 µg/mL); in assay [23], 12.5 µM (≈ 4.46 µg/mL). The MIC90 in [9] worked out at 25 µM (≈ 8.91 µg/mL); in [11], 25 µM (≈ 8.91 µg/mL); in [13], 50 µM (≈ 17.8 µg/mL). For the same compound, the CC50 in the assay with HepG2 [14] amounted to 35.4 µM; in the assay with HepG2 [14] (Homo sapiens, HepG2), 33.3 µM; in the assay with HepG2 [24], 24 µM; in the assay with HepG2 [24] (Homo sapiens, HepG2), 21.2 µM.

On to `O=C(c1ccco1)N(CCCn1ccnc1)c1nc2c(Cl)cccc2s1`, for which the MIC in [8] was found to be 25 µM (≈ 9.67 µg/mL); in assay [10], 50 µM (≈ 19.3 µg/mL); in assay [12], 37 µM (≈ 14.3 µg/mL); in assay [15], 50 µM (≈ 19.3 µg/mL); in [16], 12.5 µM (≈ 4.84 µg/mL); in assay [17], 12.5 µM (≈ 4.84 µg/mL). Moreover, the MIC is 37 µM (≈ 14.3 µg/mL) in assay [18]; 25 µM (≈ 9.67 µg/mL) in [19]; 37 µM (≈ 14.3 µg/mL) in assay [20]; ≥ 50 µM in assay [21]; > 50 µM in [22]; 37 µM (≈ 14.3 µg/mL) in assay [23]. The figures for the MIC90 in assay [9], in assay [11] and in assay [13] were 25 µM (≈ 9.67 µg/mL), 25 µM (≈ 9.67 µg/mL) and > 50 µM, respectively. The CC50 was > 50 µM with HepG2 [14] (Homo sapiens, HepG2) and > 50 µM with HepG2 [24] (Homo sapiens, HepG2).

Take `CNC(=O)CNc1nc(-c2ccccn2)nc2scc(-c3ccccc3)c12`: the IC50 is > 2 µM in the assay with Plasmodium falciparum [1], > 2 µM in the assay with Plasmodium falciparum [2] and 0.84 µM in the assay on Plasmodium falciparum [4]. Testing at 10 µM in the assay with HepG2 [3] gave an inhibition of 4%.

On to `CCCn1c(NC(=O)c2ccc3ccccc3n2)nc2ccccc21`, for which the IC50 was > 2 µM with Plasmodium falciparum [1], > 2 µM in the assay with Plasmodium falciparum [2] and 0.56 µM with Plasmodium falciparum [4]. The compound also registered an inhibition at 10 µM with HepG2 [3] of 24%.
